Laboratory results: patent US20080009418A1, “Selective Inhibitors” (Alchemia LTD., priority 2004, published 2008)

How the values were obtained:
Details in all cases: compound at 10 μM
Human μ-opioid (MOP) = molecular target: T1, Human μ-opioid (MOP) (Homo sapiens, UniProt P35372); assay: Radioligand binding, human μ-opioid (MOP) membranes, FlashPlate, [3H]-Naloxone
T1 construct: purchased Perkin Elmer Biosignal
Outline: (§1)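 Cloned human receptor membranes were coated onto FlashPlate wells and incubated with radioligand and compound (added from a 0.5 mM DMSO daughter plate) for 1 hour at room temperature in the dark. Scintillation counting gave percent inhibition, with DMSO defining total and reference ligand defining non-specific binding.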

Human Melanocortin (MC4) = molecular target: T2, Human Melanocortin (MC4) (Homo sapiens, UniProt P32245); assay: Radioligand binding, human melanocortin MC4 membranes, FlashPlate, [125I]-NDP-αMSH
T2 construct: purchased Perkin Elmer Biosignal
Outline: as §1

Human melanocortin (MC5) = molecular target: T3, Human melanocortin (MC5) (Homo sapiens, UniProt P33032); assay: Radioligand binding, human melanocortin MC5 membranes, FlashPlate, [125I]-NDP-αMSH
T3 construct: purchased Perkin Elmer Biosignal
Outline: as §1

[1] = molecular target: T4, Human melanin-concentrating hormone (MCH1) (Homo sapiens, UniProt Q99705); assay: Radioligand binding, human melanin-concentrating hormone MCH1 membranes, FlashPlate, [125I]-S36057
T4 construct: purchased Perkin Elmer Biosignal
Outline: as §1

Human neurokinin (NK1) = molecular target: T5, Human neurokinin (NK1) (Homo sapiens, UniProt P25103); assay: Radioligand binding, human neurokinin NK1 membranes, filtration, [125I]-Substance P
T5 construct: purchased Perkin Elmer Biosignal
Outline: (§2)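 Filtration binding on cloned human receptor membranes (1 Unit/well), [125I]-Substance P for NK1 and [3H]-Diprenorphine for KOP, 1 h at room temperature. Filters PEI-presoaked, washed with cold 50 mM Tris-HCl pH 7.4, counted by scintillation; percent inhibition calculated, reference ligand defining non-specific binding.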

Human δ-opioid (DOP) = molecular target: T6, Human δ-opioid (DOP) (Homo sapiens, UniProt P41143); assay: Radioligand binding, human δ-opioid (DOP) membranes, FlashPlate, [3H]-Bremazocine
T6 construct: purchased Perkin Elmer Biosignal
Outline: as §1

Mouse urotensin (mUR2) = molecular target: T7, Mouse urotensin (mUR2) (Mus musculus, UniProt Q8VIH9); assay: Radioligand binding, mouse urotensin mUR2 membranes, FlashPlate, [125I]-Urotensin II
T7 construct: purchased Perkin Elmer Biosignal
T7 sequence (Q8VIH9 1-385): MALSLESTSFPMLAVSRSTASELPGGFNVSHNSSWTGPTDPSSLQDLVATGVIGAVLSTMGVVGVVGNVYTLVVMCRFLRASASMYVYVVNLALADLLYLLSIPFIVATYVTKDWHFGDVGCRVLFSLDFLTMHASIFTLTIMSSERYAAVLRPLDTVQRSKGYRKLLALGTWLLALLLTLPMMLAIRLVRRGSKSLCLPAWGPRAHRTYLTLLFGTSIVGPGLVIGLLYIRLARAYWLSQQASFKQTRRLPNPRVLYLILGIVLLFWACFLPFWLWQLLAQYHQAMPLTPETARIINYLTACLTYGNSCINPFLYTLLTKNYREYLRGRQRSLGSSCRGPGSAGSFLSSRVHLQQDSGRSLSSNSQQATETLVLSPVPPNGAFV
Outline: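 Cloned mouse urotensin (mUR2) receptor membranes from Perkin Elmer Biosignal were immobilized in FlashPlate microplates using a proprietary coating. Each well got 19.5 μl buffer, then 0.5 μl of DMSO, reference ligand, or compound. Adding 5 μl of [125I]-Urotensin II, diluted to 5× final concentration in binding buffer, started binding. Plates were sealed with TopSeal-A and incubated 1 hour at room temperature in the dark. Wells were counted for 30 seconds each on a TopCount after a 60-second delay, and percentage inhibition was calculated.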

Human opioid (ORL1) = molecular target: T8, Human opioid (ORL1) (Homo sapiens, UniProt P41146); assay: Radioligand binding, human opioid ORL1 membranes, FlashPlate, [125I]-Nociceptin
T8 construct: purchased Perkin Elmer Biosignal
Outline: as §1

[2] = molecular target: T9, Human neuropeptide Y (NPY-Y1) (Homo sapiens, UniProt P25929); assay: Radioligand binding, human neuropeptide Y NPY-Y1 membranes, FlashPlate, [125I]-PYY
T9 construct: purchased Perkin Elmer Biosignal
T9 sequence (P25929 1-384): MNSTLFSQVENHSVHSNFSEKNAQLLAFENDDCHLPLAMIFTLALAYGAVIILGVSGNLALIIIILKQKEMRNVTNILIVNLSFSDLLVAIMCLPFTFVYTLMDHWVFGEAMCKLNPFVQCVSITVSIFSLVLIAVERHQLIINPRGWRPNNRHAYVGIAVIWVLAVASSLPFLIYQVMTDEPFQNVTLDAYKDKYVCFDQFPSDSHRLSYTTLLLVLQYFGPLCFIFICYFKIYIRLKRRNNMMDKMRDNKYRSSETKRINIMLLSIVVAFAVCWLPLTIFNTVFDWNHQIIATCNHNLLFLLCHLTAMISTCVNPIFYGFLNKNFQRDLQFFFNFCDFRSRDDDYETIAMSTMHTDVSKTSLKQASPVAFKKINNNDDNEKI
Outline: as §1

Human Melanocortin (MC3) = molecular target: T10, Human Melanocortin (MC3) (Homo sapiens, UniProt P41968); assay: Radioligand binding, human melanocortin MC3 membranes, FlashPlate, [125I]-NDP-αMSH
T10 construct: purchased Perkin Elmer Biosignal
Outline: as §1

Human κ-Opioid (KOP) = molecular target: T11, Human κ-Opioid (KOP) (Homo sapiens, UniProt P41145); assay: Radioligand binding, human κ-opioid (KOP) membranes, filtration, [3H]-Diprenorphine
T11 construct: purchased Perkin Elmer Biosignal
Outline: as §2

T3 sequence (P33032 whole entry): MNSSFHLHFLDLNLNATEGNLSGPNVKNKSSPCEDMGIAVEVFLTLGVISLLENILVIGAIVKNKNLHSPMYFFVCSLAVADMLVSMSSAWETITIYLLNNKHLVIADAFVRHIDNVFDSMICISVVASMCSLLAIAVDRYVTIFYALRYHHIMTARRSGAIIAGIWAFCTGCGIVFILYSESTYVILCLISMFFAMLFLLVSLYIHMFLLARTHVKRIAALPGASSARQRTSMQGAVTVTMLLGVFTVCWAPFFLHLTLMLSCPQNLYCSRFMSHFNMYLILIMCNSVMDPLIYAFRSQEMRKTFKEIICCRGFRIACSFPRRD
T5 sequence (P25103 whole entry): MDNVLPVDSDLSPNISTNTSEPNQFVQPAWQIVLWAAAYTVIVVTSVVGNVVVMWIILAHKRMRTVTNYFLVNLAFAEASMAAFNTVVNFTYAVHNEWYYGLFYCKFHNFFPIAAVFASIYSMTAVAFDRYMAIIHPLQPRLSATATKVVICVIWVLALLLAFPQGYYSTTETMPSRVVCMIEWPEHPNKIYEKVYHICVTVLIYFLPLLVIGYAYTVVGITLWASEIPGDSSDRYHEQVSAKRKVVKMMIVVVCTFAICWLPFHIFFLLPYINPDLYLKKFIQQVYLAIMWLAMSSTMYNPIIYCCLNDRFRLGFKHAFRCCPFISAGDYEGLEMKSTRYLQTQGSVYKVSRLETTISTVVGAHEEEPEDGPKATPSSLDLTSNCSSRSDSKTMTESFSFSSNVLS
T11 sequence (P41145 whole entry): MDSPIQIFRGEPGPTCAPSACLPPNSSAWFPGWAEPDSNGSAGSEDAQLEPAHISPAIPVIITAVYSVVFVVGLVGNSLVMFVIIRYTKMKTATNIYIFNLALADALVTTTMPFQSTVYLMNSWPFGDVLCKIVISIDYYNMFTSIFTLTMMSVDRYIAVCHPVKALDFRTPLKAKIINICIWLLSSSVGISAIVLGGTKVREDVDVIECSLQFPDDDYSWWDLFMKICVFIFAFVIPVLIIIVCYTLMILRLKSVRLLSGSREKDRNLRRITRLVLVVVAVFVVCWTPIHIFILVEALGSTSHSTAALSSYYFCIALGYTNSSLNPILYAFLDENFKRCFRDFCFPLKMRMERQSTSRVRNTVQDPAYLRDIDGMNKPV
T10 sequence (P41968 whole entry): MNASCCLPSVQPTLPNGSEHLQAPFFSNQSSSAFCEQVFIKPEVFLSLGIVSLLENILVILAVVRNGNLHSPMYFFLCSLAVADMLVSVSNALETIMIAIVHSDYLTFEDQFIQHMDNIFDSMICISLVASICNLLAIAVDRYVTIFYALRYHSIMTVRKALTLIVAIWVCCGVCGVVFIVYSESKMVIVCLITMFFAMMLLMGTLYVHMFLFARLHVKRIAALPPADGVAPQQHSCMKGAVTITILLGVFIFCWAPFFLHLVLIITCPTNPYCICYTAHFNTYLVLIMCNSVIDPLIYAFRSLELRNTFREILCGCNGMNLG
T6 sequence (P41143 whole entry): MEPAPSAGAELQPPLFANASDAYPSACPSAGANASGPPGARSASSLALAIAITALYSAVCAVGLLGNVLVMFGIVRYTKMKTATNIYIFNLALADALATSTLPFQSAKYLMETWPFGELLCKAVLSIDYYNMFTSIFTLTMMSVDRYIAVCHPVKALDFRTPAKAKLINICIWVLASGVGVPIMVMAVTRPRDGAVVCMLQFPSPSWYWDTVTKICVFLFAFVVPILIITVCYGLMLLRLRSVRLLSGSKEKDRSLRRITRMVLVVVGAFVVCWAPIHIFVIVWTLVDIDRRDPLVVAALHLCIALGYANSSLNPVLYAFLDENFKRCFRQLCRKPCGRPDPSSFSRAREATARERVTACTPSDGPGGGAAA
T2 sequence (P32245 whole entry): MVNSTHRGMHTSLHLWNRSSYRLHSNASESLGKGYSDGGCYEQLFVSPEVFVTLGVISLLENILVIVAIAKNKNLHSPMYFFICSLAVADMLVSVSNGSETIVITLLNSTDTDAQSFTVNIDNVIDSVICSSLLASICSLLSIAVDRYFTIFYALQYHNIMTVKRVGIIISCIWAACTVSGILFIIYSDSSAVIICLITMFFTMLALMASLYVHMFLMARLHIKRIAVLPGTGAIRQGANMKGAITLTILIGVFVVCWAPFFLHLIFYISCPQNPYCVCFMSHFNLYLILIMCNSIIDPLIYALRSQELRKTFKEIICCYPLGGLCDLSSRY
T8 sequence (P41146 whole entry): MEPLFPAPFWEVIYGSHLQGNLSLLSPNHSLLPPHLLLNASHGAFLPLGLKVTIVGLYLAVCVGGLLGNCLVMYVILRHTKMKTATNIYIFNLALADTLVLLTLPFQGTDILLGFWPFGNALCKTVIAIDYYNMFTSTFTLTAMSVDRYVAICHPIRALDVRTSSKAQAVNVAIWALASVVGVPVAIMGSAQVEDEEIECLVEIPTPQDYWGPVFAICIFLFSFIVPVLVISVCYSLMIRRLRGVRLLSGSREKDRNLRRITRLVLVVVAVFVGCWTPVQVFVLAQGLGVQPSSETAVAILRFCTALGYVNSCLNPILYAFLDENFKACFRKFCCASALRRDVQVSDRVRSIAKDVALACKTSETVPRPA
T1 sequence (P35372 whole entry): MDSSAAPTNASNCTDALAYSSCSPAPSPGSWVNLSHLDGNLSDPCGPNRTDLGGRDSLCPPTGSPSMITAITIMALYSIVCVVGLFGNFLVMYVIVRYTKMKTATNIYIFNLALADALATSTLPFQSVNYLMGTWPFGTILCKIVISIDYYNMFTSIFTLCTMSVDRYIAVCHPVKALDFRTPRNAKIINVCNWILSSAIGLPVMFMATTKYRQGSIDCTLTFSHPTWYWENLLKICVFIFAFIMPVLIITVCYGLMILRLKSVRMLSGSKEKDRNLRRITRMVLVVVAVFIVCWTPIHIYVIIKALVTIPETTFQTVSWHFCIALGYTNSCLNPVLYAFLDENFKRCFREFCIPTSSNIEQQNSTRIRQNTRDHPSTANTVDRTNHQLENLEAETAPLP
T4 sequence (Q99705 whole entry): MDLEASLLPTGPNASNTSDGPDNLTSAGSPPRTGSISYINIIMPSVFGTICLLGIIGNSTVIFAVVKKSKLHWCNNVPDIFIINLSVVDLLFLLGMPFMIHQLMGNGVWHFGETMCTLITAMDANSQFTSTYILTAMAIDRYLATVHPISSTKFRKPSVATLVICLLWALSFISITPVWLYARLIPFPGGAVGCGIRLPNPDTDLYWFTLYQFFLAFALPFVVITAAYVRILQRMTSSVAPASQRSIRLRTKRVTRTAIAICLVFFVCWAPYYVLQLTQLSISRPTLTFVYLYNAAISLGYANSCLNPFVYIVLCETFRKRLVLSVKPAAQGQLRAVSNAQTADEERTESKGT

N=C(N)NCCC(=O)NC1C(OCc2ccc(Cl)cc2)OC(COCc2ccc(Cl)cc2)C(O)C1OCc1ccc(-c2ccccc2)cc1 (stereo not shown) [compound 434]
A7: inhibition of radioligand binding (Human μ-opioid (MOP); [3H]-Naloxone, human MOP membranes): − (“−” indicates less than 50% inhibition at 10 μM) | A4: inhibition of radioligand binding (Human Melanocortin (MC4); [125I]-NDP-αMSH, human MC4 membranes): + (“+” indicates greater than 50% inhibition at 10 μM) | A5: inhibition of radioligand binding (Human melanocortin (MC5); [125I]-NDP-αMSH, human MC5 membranes): + (“+” indicates greater than 50% inhibition at 10 μM) | A6: inhibition of radioligand binding ([1]; [125I]-S36057, human MCH1 membranes): + (“+” indicates greater than 50% inhibition at 10 μM) | A8: inhibition of radioligand binding (Human neurokinin (NK1); [125I]-Substance P, human NK1 membranes): + (“+” indicates greater than 50% inhibition at 10 μM) | A1: inhibition of radioligand binding (Human δ-opioid (DOP); [3H]-Bremazocine, human DOP membranes): − (“−” indicates less than 50% inhibition at 10 μM) | A11: inhibition of radioligand binding (Mouse urotensin (mUR2); [125I]-Urotensin II, mouse mUR2 membranes): − (“−” indicates less than 50% inhibition at 10 μM) | A10: inhibition of radioligand binding (Human opioid (ORL1); [125I]-Nociceptin, human ORL1 membranes): − (“−” indicates less than 50% inhibition at 10 μM) | A9: inhibition of radioligand binding ([2]; [125I]-PYY, human NPY-Y1 membranes): − (“−” indicates less than 50% inhibition at 10 μM) | A3: inhibition of radioligand binding (Human Melanocortin (MC3); [125I]-NDP-αMSH, human MC3 membranes): + (“+” indicates greater than 50% inhibition at 10 μM) | A2: inhibition of radioligand binding (Human κ-Opioid (KOP); [3H]-Diprenorphine, human KOP membranes): − (“−” indicates less than 50% inhibition at 10 μM)

COCC1OC(OCc2ccccc2)C(NC(=O)CCN)C(OCc2ccc(Cl)cc2)C1O (stereo not shown) [compound 178]
A7 radioligand binding, percentage inhibition (Human μ-opioid (MOP); [3H]-Naloxone): − (“−” indicates less than 50% inhibition at 10 μM) | A4 radioligand binding, percentage inhibition (Human Melanocortin (MC4); [125I]-NDP-αMSH): − (“−” indicates less than 50% inhibition at 10 μM) | A5 radioligand binding, percentage inhibition (Human melanocortin (MC5); [125I]-NDP-αMSH): + (“+” indicates greater than 50% inhibition at 10 μM) | A6 radioligand binding, percentage inhibition ([1]; [125I]-S36057): − (“−” indicates less than 50% inhibition at 10 μM) | A8 radioligand binding, percentage inhibition (Human neurokinin (NK1); [125I]-Substance P): + (“+” indicates greater than 50% inhibition at 10 μM) | A1 radioligand binding, percentage inhibition (Human δ-opioid (DOP); [3H]-Bremazocine): − (“−” indicates less than 50% inhibition at 10 μM) | A11 radioligand binding, percentage inhibition (Mouse urotensin (mUR2); [125I]-Urotensin II): − (“−” indicates less than 50% inhibition at 10 μM) | A10 radioligand binding, percentage inhibition (Human opioid (ORL1); [125I]-Nociceptin): − (“−” indicates less than 50% inhibition at 10 μM) | A9 radioligand binding, percentage inhibition ([2]; [125I]-PYY): − (“−” indicates less than 50% inhibition at 10 μM) | A3 radioligand binding, percentage inhibition (Human Melanocortin (MC3); [125I]-NDP-αMSH): − (“−” indicates less than 50% inhibition at 10 μM) | A2 radioligand binding, percentage inhibition (Human κ-Opioid (KOP); [3H]-Diprenorphine): − (“−” indicates less than 50% inhibition at 10 μM)

NCCCC(=O)NC1C(OCc2ccc(Cl)cc2)OC(COCc2ccccc2)C(O)C1OCc1ccccc1 (single isomer, unassigned) [compound 504]
A7: inhibition of radioligand binding, human μ-opioid (MOP) (Human μ-opioid (MOP); [3H]-Naloxone): − (“−” indicates less than 50% inhibition at 10 μM) | A4: inhibition of radioligand binding, human melanocortin (MC4) (Human Melanocortin (MC4); [125I]-NDP-αMSH): − (“−” indicates less than 50% inhibition at 10 μM) | A5: inhibition of radioligand binding, human melanocortin (MC5) (Human melanocortin (MC5); [125I]-NDP-αMSH, 10 µM): − (“−” indicates less than 50% inhibition at 10 μM) | A6: inhibition of radioligand binding, human melanin-concentrating hormone (MCH1) ([1]; [125I]-S36057): − (“−” indicates less than 50% inhibition at 10 μM) | A8: inhibition of radioligand binding, human neurokinin (NK1) (Human neurokinin (NK1); [125I]-Substance P): + (“+” indicates greater than 50% inhibition at 10 μM) | A1: inhibition of radioligand binding, human δ-opioid (DOP) (Human δ-opioid (DOP); [3H]-Bremazocine): − (“−” indicates less than 50% inhibition at 10 μM) | A11: inhibition of radioligand binding, mouse urotensin (mUR2) (Mouse urotensin (mUR2); [125I]-Urotensin II): − (“−” indicates less than 50% inhibition at 10 μM) | A10: inhibition of radioligand binding, human opioid (ORL1) (Human opioid (ORL1); [125I]-Nociceptin, 10 µM): + (“+” indicates greater than 50% inhibition at 10 μM) | A9: inhibition of radioligand binding, human neuropeptide Y (NPY-Y1) ([2]; [125I]-PYY): − (“−” indicates less than 50% inhibition at 10 μM) | A3: inhibition of radioligand binding, human melanocortin (MC3) (Human Melanocortin (MC3); [125I]-NDP-αMSH): − (“−” indicates less than 50% inhibition at 10 μM) | A2: inhibition of radioligand binding, human κ-opioid (KOP) (Human κ-Opioid (KOP); [3H]-Diprenorphine): − (“−” indicates less than 50% inhibition at 10 μM)

CO[C@H]1[C@H](O)[C@@H](COCc2ccc3ccccc3c2)OC(OCc2ccc3ccccc3c2)[C@@H]1NC(=O)CCCN (stereo partly shown) [compound 72]
A7 radioligand binding inhibition (Human μ-opioid (MOP); human μ-opioid (MOP) membranes): − (“−” indicates less than 50% inhibition at 10 μM) | A4 radioligand binding inhibition (Human Melanocortin (MC4); human melanocortin MC4 membranes): + (“+” indicates greater than 50% inhibition at 10 μM) | A5 radioligand binding inhibition (Human melanocortin (MC5); human melanocortin MC5 membranes): + (“+” indicates greater than 50% inhibition at 10 μM) | A6 radioligand binding inhibition ([1]; human MCH1 membranes): − (“−” indicates less than 50% inhibition at 10 μM) | A8 radioligand binding inhibition (Human neurokinin (NK1); human neurokinin NK1 membranes): + (“+” indicates greater than 50% inhibition at 10 μM) | A1 radioligand binding inhibition (Human δ-opioid (DOP); human δ-opioid (DOP) membranes): − (“−” indicates less than 50% inhibition at 10 μM) | A11 radioligand binding inhibition (Mouse urotensin (mUR2); mouse urotensin mUR2 membranes): − (“−” indicates less than 50% inhibition at 10 μM) | A10 radioligand binding inhibition (Human opioid (ORL1); human ORL1 membranes): − (“−” indicates less than 50% inhibition at 10 μM) | A9 radioligand binding inhibition ([2]; human NPY-Y1 membranes): − (“−” indicates less than 50% inhibition at 10 μM) | A3 radioligand binding inhibition (Human Melanocortin (MC3); human melanocortin MC3 membranes): − (“−” indicates less than 50% inhibition at 10 μM) | A2 radioligand binding inhibition (Human κ-Opioid (KOP); human κ-opioid (KOP) membranes): − (“−” indicates less than 50% inhibition at 10 μM)

CSC1OC(COCc2ccc(-c3ccccc3)cc2)C(O)C(OCc2ccc3ccccc3c2)C1NC(=O)CCN (stereo not shown) [compound 313]
A7: inhibition of radioligand binding, human μ-opioid (MOP) (Human μ-opioid (MOP); [3H]-Naloxone): − (“−” indicates less than 50% inhibition at 10 μM) | A4: inhibition of radioligand binding, human melanocortin (MC4) (Human Melanocortin (MC4); [125I]-NDP-αMSH): − (“−” indicates less than 50% inhibition at 10 μM) | A5: inhibition of radioligand binding, human melanocortin (MC5) (Human melanocortin (MC5); [125I]-NDP-αMSH): + (“+” indicates greater than 50% inhibition at 10 μM) | A6: inhibition of radioligand binding, human melanin-concentrating hormone (MCH1) ([1]; [125I]-S36057): − (“−” indicates less than 50% inhibition at 10 μM) | A8: inhibition of radioligand binding, human neurokinin (NK1) (Human neurokinin (NK1); [125I]-Substance P): + (“+” indicates greater than 50% inhibition at 10 μM) | A1: inhibition of radioligand binding, human δ-opioid (DOP) (Human δ-opioid (DOP); [3H]-Bremazocine): − (“−” indicates less than 50% inhibition at 10 μM) | A11: inhibition of radioligand binding, mouse urotensin (mUR2) (Mouse urotensin (mUR2); [125I]-Urotensin II): − (“−” indicates less than 50% inhibition at 10 μM) | A10: inhibition of radioligand binding, human opioid (ORL1) (Human opioid (ORL1); [125I]-Nociceptin): − (“−” indicates less than 50% inhibition at 10 μM) | A9: inhibition of radioligand binding, human neuropeptide Y (NPY-Y1) ([2]; [125I]-PYY): − (“−” indicates less than 50% inhibition at 10 μM) | A3: inhibition of radioligand binding, human melanocortin (MC3) (Human Melanocortin (MC3); [125I]-NDP-αMSH): − (“−” indicates less than 50% inhibition at 10 μM) | A2: inhibition of radioligand binding, human κ-opioid (KOP) (Human κ-Opioid (KOP); [3H]-Diprenorphine): − (“−” indicates less than 50% inhibition at 10 μM)
